Assays:
PBMC = assay: Cytotoxicity against PHA induced human PBMC after 3 days by MTS assay; assay type: cell-based; conditions: 72 h
K562 [1] = assay: Antiproliferative activity against human K562 cells measured after 3 days by MTS assay; assay type: functional, cell-based; conditions: K562, 72 h
Jurkat = assay: Antiproliferative activity against human Jurkat cells measured after 3 days by MTS assay; assay type: functional, cell-based; conditions: 72 h
[2] = Antiproliferative activity against human U937 cells measured after 3 days by MTS assay; assay type: functional, cell-based; conditions: U-937, 72 h
[3] = Antiproliferative activity against human HL60 cells measured after 3 days by MTS assay; assay type: functional, cell-based; conditions: HL-60, 72 h
[4] = Antiproliferative activity against human U266 cells measured after 3 days by MTS assay; assay type: functional, cell-based; conditions: U-266, 72 h
[5] = Selectivity index, ratio of IC50 for human PBMC to IC50 for human U266 cells; design: species or system U-266
[6] = Selectivity index, ratio of IC50 for human PBMC to IC50 for human U937 cells; design: species or system U-937
[7] = Selectivity index, ratio of IC50 for human PBMC to IC50 for human K562 cells
K562 [8] = assay: Induction of apoptosis in human K562 cells at 10 uM measured on day 3 by APC-Annexin-V staining based flow cytometry; assay type: functional
[9] = Selectivity index, ratio of IC50 for human PBMC to IC50 for human Jurkat cells

Row | Structure (SMILES) | IC50 (K562 [1]) [µM] | IC50 (Jurkat) [µM] | IC50 (PBMC) [µM] | IC50 [2] [µM] | IC50 [3] [µM] | IC50 [4] [µM] | Ratio IC50 [5] | Ratio IC50 [6] | Ratio IC50 [7] | Activity (K562 [8]) [%] | Ratio IC50 [9]
1 | O=c1[nH]c2ccccc2n1C1CCN(Cc2ccc(-c3nc4cc5[nH]cnc5cc4nc3-c3ccccc3)cc2)CC1 | 17 | 3.5 | > 50 | 8 | 5.5 |  |  |  |  |  | 
2 | CCOC(=O)c1cc(-c2ccccc2)n2c1c(-c1ccc(CN3CCC(c4nnc(-c5ccccn5)[nH]4)CC3)cc1)nc1ccccc12 | 12 | 5 | 50 | 11 | 24 | 8 |  |  |  |  | 
3 | CCOC(=O)c1c(-c2ccccc2)cn2c1c(-c1ccc(CN3CCC(c4nnc(-c5ccccn5)[nH]4)CC3)cc1)nc1ccccc12 | 14 | 5 | 16 | 7 | 12 | > 50 |  |  |  |  | 
4 | O=c1[nH]c2ccccc2n1C1CCN(Cc2ccc(-c3nc4ccccc4n4ccc(-c5ccccc5)c34)cc2)CC1 |  |  |  |  | 2 |  |  |  |  |  | 
5 | CCOC(=O)c1cc2c(-c3ccc(CN4CCC(n5c(=O)[nH]c6ccccc65)CC4)cc3)nc3ccccc3n2c1-c1ccccc1 | 8.5 | 6.5 | > 50 | > 50 | > 50 | > 50 |  |  |  |  | 
6 | O=c1[nH]c2ccccc2n1C1CCN(Cc2ccc(-c3nc4ccccc4n4cccc34)cc2)CC1 | 4.5 |  |  |  |  |  |  |  |  |  | 
7 | O=c1[nH]c2ccccc2n1C1CCN(Cc2ccc(-c3nc4ccccc4n4cc5ccccc5c34)cc2)CC1 | 5 | 5 |  |  | 5 |  |  |  |  |  | 
8 | CCOC(=O)c1cn2c(c(-c3ccc(CN4CCC(n5c(=O)[nH]c6ccccc65)CC4)cc3)nc3ccccc32)c1-c1ccccc1 | 9 | 4 | 41.3 | > 50 | 3.5 | 10 |  |  |  |  | 
9 | O=c1cc(N2CCOCC2)oc2c(-c3ccccc3)cccc12 [LY-294002] | 38 | 22 | > 50 | 14 | 14 | 46 |  |  |  |  | 

Further lines, with some results ahead:

Row | IC50 (K562 [1]) [µM] | IC50 (Jurkat) [µM] | Structure (SMILES) | IC50 (PBMC) [µM] | IC50 [2] [µM] | IC50 [3] [µM] | IC50 [4] [µM] | Ratio IC50 [5] | Ratio IC50 [6] | Ratio IC50 [7] | Activity (K562 [8]) [%] | Ratio IC50 [9]
10 | 7 | 6 | CCOC(=O)c1cc(-c2ccccc2)n2c1c(-c1ccc(CN3CCC(c4nc5ccc(F)cc5[nH]4)CC3)cc1)nc1ccccc12 | 50 | 4 | 8 | 4 | 12.5 | 12.5 |  |  | 
11 | 3 | 5 | CCOC(=O)c1cn2c(c(-c3ccc(CN4CCC(c5nc6ccc(F)cc6[nH]5)CC4)cc3)nc3ccccc32)c1-c1ccccc1 | > 50 |  | 10 | 18 |  |  | >16.7 | 92 | 
12 | 3 | 3.5 | CCOC(=O)c1cc2c(-c3ccc(CN4CCC(c5nc6ccc(F)cc6[nH]5)CC4)cc3)nc3ccccc3n2c1-c1ccccc1 | 13 | 3 | 3 | 3 |  |  |  |  | 
13 | 3.5 | 3 | CCOC(=O)c1cc2c(-c3ccc(CN4CCC(c5nnc(-c6ccccn6)[nH]5)CC4)cc3)nc3ccccc3n2c1-c1ccccc1 | 12 | 8 | 7 | 3 |  |  |  |  | 
14 | 4 | 41 | CCOC(=O)c1c(-c2ccccc2)cn2c1c(-c1ccc(CN3CCC(n4c(=O)[nH]c5ccccc54)CC3)cc1)nc1ccccc12 | > 50 | > 50 | > 50 | > 50 |  |  | >12.5 |  | 
15 | 3 | 5 | CCOC(=O)c1c(-c2ccccc2)cn2c1c(-c1ccc(CN3CCC(c4nc5ccc(F)cc5[nH]4)CC3)cc1)nc1ccccc12 | 14 | 21 | 19 | 3.5 |  |  |  |  | 
16 | 8 | 4 | CCOC(=O)c1cc(-c2ccccc2)n2c1c(-c1ccc(CN3CCC(n4c(=O)[nH]c5ccccc54)CC3)cc1)nc1ccccc12 | > 50 | 9 | 6 | 9 |  |  |  |  | >12.5
17 | 7 | 2 | CCOC(=O)c1cn2c(c(-c3ccc(CN4CCC(c5nnc(-c6ccccn6)[nH]5)CC4)cc3)nc3ccccc32)c1-c1ccccc1 | 8 | 7 | 5 | 5 |  |  |  |  | 
